Earlier results as cited in patent publication US11116769B2, “Tadalafil free base-containing film dosage form containing polyethylene glycol-based polymer and/or vinyl pyrrolidone-based polymer as dispersion stabilizer” (CTC BIO, INC., priority 2013, dated 2021).

solubility in organic solvents (some organic solvents such as methanol, ethanol and acetone): slightly soluble
solubility in water (water): practically insoluble
water solubility (water at 25° C., from U.S. Pat. No. 6,841,167): about 2 μg per 1 milliliter (mL)
Compound: CN1CC(=O)N2[C@H](c3ccc4c(c3)OCO4)c3[nH]c4ccccc4c3C[C@@H]2C1=O [Tadalafil, (6R-trans)-6-(1,3-benzodioxol-5-yl)-2,3,6,7,12,12a-hexahydro-2-methyl-pyrazino[1′,2′:1,6]pyrido[3,4-b]indole-1,4-dione]
